We go through five compounds from ChEMBL document CHEMBL4052691, “Discovery of BMS-961955, an allosteric inhibitor of the hepatitis C virus NS5B polymerase” (Bioorg Med Chem Lett, 2017).

Data set [1] in a line: Apparent permeability of the compound at pH 7.4 by PAMPA. Format: physicochemical. For orientation: The PAMPA barrier holds no transporters, so it reflects passive diffusion.
A short description of data set [2]: Oral bioavailability rat at 10 mg/kg. The format is ADME, organism-based. The conditions noted are these: in vivo.
A short description of data set [3]: (§1) AUC (0 to 6 hrs) in rat at 5 mg/kg, iv. The format is ADME, organism-based. Also on record: dose 5 mg/kg, time < 6 hr, route intravenous. The conditions noted are these: in vivo.
The nature of data set [4]: Apparent permeability of the compound at pH 5.5 by PAMPA. The format is physicochemical.
Data set [5] is described as follows: AUC (0 to 24 hrs) in rat at 5 mg/kg, iv. Also on record: time < 24 hr, dose 5 mg/kg, route intravenous. Format: ADME, organism-based. The conditions noted are these: in vivo.
Data set [6] in a line: Volume of distribution at steady state in cynomolgus monkey at 1 mg/kg, iv. Format: ADME, organism-based, Macaca fascicularis. The conditions noted are these: in vivo, read-out: Vdss.
The nature of data set [7]: AUC (0 to 24 hrs) in dog at 3 mg/kg, po. Also noted: time < 24 hr, dose 3 mg/kg, route oral. Format: ADME, organism-based, Canis lupus familiaris. The conditions noted are these: in vivo.
The nature of data set [8]: AUC (0 to 24 hrs) in rat at 10 mg/kg, iv. Format: ADME, organism-based. Also on record: dose 10 mg/kg, time < 24 hr, route intravenous. The conditions noted are these: in vivo.
A short description of data set [9]: Oral bioavailability in dog at 3 mg/kg. The conditions noted are these: in vivo. Format: ADME, organism-based, Canis lupus familiaris.
The nature of data set [10]: Oral bioavailability in cynomolgus monkey at 3 mg/kg. Format: ADME, organism-based, Macaca fascicularis. The conditions noted are these: in vivo.
Data set [11] is described as follows: Volume of distribution at steady state in rat at 5 mg/kg, iv. The format is ADME, organism-based. The conditions noted are these: in vivo, read-out: Vdss.
Data set [12] can be described thus: AUC (0 to 24 hrs) in dog at 1 mg/kg, iv. The conditions noted are these: in vivo. The format is ADME, organism-based, Canis lupus familiaris. Also noted: time < 24 hr, dose 1 mg/kg, route intravenous.
The nature of data set [13]: Volume of distribution at steady state in dog at 1 mg/kg, iv. Format: ADME, organism-based, Canis lupus familiaris. The conditions noted are these: in vivo, read-out: Vdss.
Data set [14] in a line: AUC (0 to 24 hrs) in cynomolgus monkey at 3 mg/kg, […]. Format: ADME, organism-based, Macaca fascicularis. Also on record: dose 3 mg/kg, time < 24 hr. The conditions noted are these: in vivo.
Data set [15] can be described thus: AUC (0 to 24 hrs) in cynomolgus monkey at 1 mg/kg, iv. Format: ADME, organism-based, Macaca fascicularis. Also on record: dose 1 mg/kg, time < 24 hr, route intravenous. The conditions noted are these: in vivo.
The subject of data set [16] is Rattus norvegicus. The data set is described as §1. The format is ADME, organism-based. Also on record: dose 5 mg/kg, time < 6 hr, route intravenous. The conditions noted are these: in vivo, 6 h.

As usually defined, the Papp is a coefficient for how fast a substance crosses the barrier. As a reminder, the bioavailability is dose-corrected exposure relative to a reference, in per cent. One may read the AUC(0-t) as the area under the concentration-time curve up to a stated or last time point. As to `CN1CC2CCC(C1)N2C(=O)[C@]12C[C@H]1c1cc(F)ccc1-c1c(C3CCCCC3)c3ccc(C(=O)NS(=O)(=O)C(C)(C)C)cc3n1C2`, the Papp amounted to 23.8 ×10⁻⁶ cm/s in data set [1] and 13.5 ×10⁻⁶ cm/s in [4]. In [2], this compound came in with a bioavailability of 8%. The compound also gave an AUC(0-t) at 6 h in [3] of 1.3 µM·h.

In the case of `CN1CC2CCC(C1)N2C(=O)[C@]12C[C@H]1c1cc(F)ccc1-c1c(C3CCCCC3)c3ccc(C(=O)NS(=O)(=O)C4CC4)cc3n1C2`, the AUC(0-t) at 24 h in [5] came to 1.51 µM·h. In addition, in [2], the bioavailability worked out at 23%.

`CN1CC2CCC(C1)N2C(=O)[C@]12C[C@H]1c1cc(F)ccc1-c1c(C3CCCCC3)c3ccc(C(=O)NS(=O)(=O)C4(C)CC4)cc3n1C2`: the Vd is 3.1 L/kg in data set [6], 3.9 L/kg in data set [11] and 0.6 L/kg in data set [13]. Further, the AUC(0-t) at 24 h in [7] is 62.1 µM·h; in data set [5] it was 12.3 to 12.4 µM·h; in data set [8] it was 12.4 µM·h; in data set [12], 25.7 µM·h; in [14], 3.1 µM·h; in data set [15], 2.3 µM·h. Further, the bioavailability came to 84% in data set [9], 48% in [10] and 52% in [2]. The values for the Papp in data set [1] and in data set [4] were 59 ×10⁻⁶ cm/s and 52.3 ×10⁻⁶ cm/s, respectively.

In data set [5], `CCS(=O)(=O)NC(=O)c1ccc2c(C3CCCCC3)c3n(c2c1)C[C@@]1(C(=O)N2C4CCC2CN(C)C4)C[C@H]1c1cc(F)ccc1-3` gave an AUC(0-t) at 24 h of 0.857 µM·h. In data set [2], this compound returned a bioavailability of 13.6%.

Broadly, the AUC is concentration integrated over time. Consider `CN1CC2CCC(C1)N2C(=O)[C@]12C[C@H]1c1cc(F)ccc1-c1c(C3CCCCC3)c3ccc(C(=O)NS(=O)(=O)N4CCC4)cc3n1C2`, for which, in data set [2], the bioavailability amounted to 19%. The AUC in [16] is 0.5 µM·h.
